In ChEMBL document CHEMBL5584313, “Design and Synthesis of 7-Oxabicyclo[2.2.1]heptane-2,3-dicarboxylic Acid Derivatives as PP5 Inhibitors To Reverse Temozolomide Resistance in Glioblastoma Multiforme” (J Med Chem, 2024):
The source made the active and inactive calls. The calls are words filed in the database; no cut-off is given here. Starred links: 1 amine or outer side, 2 acyl side, 3 side chain; linkers in the order of their positions; H or OH if unused. Positions of bridges follow the written chain, without caps; N, C: chain ends. Non-standard residues stand in square brackets, D forms with d. Residues, ends and D or L forms follow the SMILES beside them. Adda = CO[C@@H](Cc1ccccc1)[C@@H](C)/C=C(C)/C=C/[C@H](N[*:1])[C@H](C)C(=O)[*:2]; dAsp(3S-Me) = C[C@H](C(=O)[*:3])[C@@H](N[*:1])C(=O)[*:2]; d(γGlu) = O=C(O)[C@@H](CCC(=O)[*:2])N[*:1]; NMeDha = C=C(NC)C(=O)O

What was measured:
[1] = tested on: U-87 MG; experiment: Cytotoxicity against human U-87 MG cells incubated for 48 hrs by CCK8 assay; type: functional, cell-based, U-87MG ATCC
[2] = tested on: U-87 MG; experiment: Induction of apoptosis in human U-87 MG cells assessed as G0/G1 phase cells at 25 uM incubated for 24 hrs by propidium iodide staining based flow cytometry analysis (reference value: 58.8%); type: functional, U-87MG ATCC
[3] = tested on: U-87 MG; experiment: Induction of apoptosis in human U-87 MG cells assessed as S phase cells at 25 uM incubated for 24 hrs by propidium iodide staining based flow cytometry analysis (reference value: 29.4%); type: functional, U-87MG ATCC
[4] = tested on: U-87 MG; experiment: Induction of apoptosis in human U-87 MG cells assessed as G2/M phase cells at 25 uM incubated for 24 hrs by propidium iodide staining based flow cytometry analysis (reference value: 11.9%); type: functional, U-87MG ATCC
[5] = tested on: U-87 MG; experiment: Induction of apoptosis in human U-87 MG cells assessed as G0/G1 phase cells at 25 uM incubated for 24 hrs in presence of TMZ by propidium iodide staining based flow cytometry analysis (reference value: 58.8%); type: functional, U-87MG ATCC
[6] = tested on: U-87 MG; experiment: Induction of apoptosis in human U-87 MG cells assessed as S phase cells at 25 uM incubated for 24 hrs in presence of TMZ by propidium iodide staining based flow cytometry analysis (reference value: 29.4%); type: functional, U-87MG ATCC
[7] = tested on: U-87 MG; experiment: Induction of apoptosis in human U-87 MG cells assessed as G2/M phase cells at 25 uM incubated for 24 hrs in presence of TMZ by propidium iodide staining based flow cytometry analysis (reference value: 11.9%); type: functional, U-87MG ATCC
[8] = tested on: U-87 MG; experiment: Antitumor activity against human U-87 MG cells xenografted in BALB/c nude mouse assessed as tumor growth retardation at 40 mg/kg, po administered every other day for 18 days; type: functional, organism-based; details: U-87MG ATCC, time 18.0 day
[9] = Aqueous stability of compound assessed as compound remaining measured at 240 mins by HPLC assay; type: physicochemical; details: aqueous solution, read-out: Stability
[10] = Inhibition of PP2A (unknown origin)
[11] = Aqueous stability of compound assessed as compound remaining measured at 10 mins by HPLC assay; type: physicochemical; details: aqueous solution, read-out: Stability
[12] = Aqueous stability of compound assessed as compound remaining measured at 30 mins by HPLC assay; type: physicochemical; details: aqueous solution, read-out: Stability
[13] = Aqueous stability of compound assessed as compound remaining measured at 60 mins by HPLC assay; type: physicochemical; details: aqueous solution, read-out: Stability
[14] = Aqueous stability of compound assessed as compound remaining measured at 120 mins by HPLC assay; type: physicochemical; details: aqueous solution, read-out: Stability
[15] = Aqueous stability of compound assessed as compound remaining measured at 480 mins by HPLC assay; type: physicochemical; details: aqueous solution, read-out: Stability
[16] = Stability in mouse plasma assessed as half life measured upto 300 mins by LC-MS/MS analysis; type: ADME, cell-free
[17] = Inhibition of PP2A in human U-87 MG cell lysate using RRA(pT)VA as substrate; type: subcellular
[18] = organism: Homo sapiens; experiment: Selectivity ratio of IC50 for PP1 (unknown origin ) to IC50 for PP5 (unknown origin)
[19] = organism: Homo sapiens; experiment: Selectivity ratio of IC50 for PP2A (unknown origin ) to IC50 for PP5 (unknown origin)
[20] = tested on: HCT-116; experiment: Cytotoxicity against human HCT-116 cells incubated for 48 hrs by CCK8 assay; type: functional, cell-based; details: HCT-116, 48 h
[21] = tested on: A549; experiment: Cytotoxicity against human A549 cells incubated for 48 hrs by CCK8 assay; type: functional, cell-based; details: A549, 48 h
[22] = Cytotoxicity against HEK293T cells incubated for 48 hrs by CCK8 assay; type: toxicity, cell-based, HEK-293T; details: human
[23] = Cytotoxicity against HUVECs incubated for 48 hrs by CCK8 assay; type: toxicity, cell-based; details: human, HUVEC cells
[24] = Cytotoxicity against human BEAS-2B incubated for 48 hrs by CCK8 assay; type: toxicity, cell-based; details: BEAS-2B cells
[25] = tested on: U-87 MG; experiment: Induction of apoptosis in human U-87 MG cells assessed as G0/G1 phase cells at 5 uM incubated for 24 hrs by propidium iodide staining based flow cytometry analysis (reference value: 58.8%); type: functional, U-87MG ATCC
[26] = tested on: U-87 MG; experiment: Induction of apoptosis in human U-87 MG cells assessed as S phase cells at 5 uM incubated for 24 hrs by propidium iodide staining based flow cytometry analysis (reference value: 29.4%); type: functional, U-87MG ATCC
[27] = tested on: U-87 MG; experiment: Induction of apoptosis in human U-87 MG cells assessed as G2/M phase cells at 5 uM incubated for 24 hrs by propidium iodide staining based flow cytometry analysis (reference value: 11.9%); type: functional, U-87MG ATCC
[28] = tested on: U-87MG ATCC; experiment: Upregulation of p53 expression in human U-87 MG cells at 6.25 to 100 uM after 24 hrs by Western blotting analysis; type: functional, cell-based; details: dose 6.25-100 µM
[29] = tested on: U-87MG ATCC; experiment: Downregulation of cyclin D1 expression in human U-87 MG cells at 25 uM incubated for 24 hrs in presence TMZ by Western blotting analysis; type: functional, cell-based
[30] = Stability of compound in water assessed as remaining compound after 24 hrs; type: physicochemical; details: read-out: Stability
[31] = tested on: U-87 MG; experiment: Antitumor activity against human U-87 MG cells xenografted in BALB/c nude mouse assessed as tumor growth inhibition at 3 mg/kg, po administered every other day for 18 days in presence of 40 mg/kg TMZ; type: functional, U-87MG ATCC; details: 432 h, time 18 day, read-out: TGI
[32] = tested on: U-87 MG; experiment: Antitumor activity against human U-87 MG cells xenografted in BALB/c nude mouse assessed as reduction in MGMT expression at 1.5 to 3 mg/kg, po measured after 4 hrs in presence of 40 mg/kg TMZ by Western blotting analysis; type: functional, organism-based; details: U-87MG ATCC, dose 1.5-3 mg/kg
[33] = Toxicity in BALB/c nude mouse xenografted with U-87 MG cells assessed as kidney damage at 3 mg/kg, po administered every other day for 18 days in presence of 40 mg/kg TMZ by H and E staining based assay; type: organism-based; details: in vivo, 432 h, time 18 day
[34] = Toxicity in BALB/c nude mouse xenografted with U-87 MG cells assessed as liver damage at 3 mg/kg, po administered every other day for 18 days in presence of 40 mg/kg TMZ by H and E staining based assay; type: organism-based; details: in vivo, 432 h, time 18 day
[35] = Toxicity in BALB/c nude mouse xenografted with U-87 MG cells assessed as kidney damage at 3 mg/kg, po administered every other day for 18 days by H and E staining based assay; type: organism-based; details: in vivo, 432 h, time 18 day
[36] = Toxicity in BALB/c nude mouse xenografted with U-87 MG cells assessed as liver damage at 3 mg/kg, po administered every other day for 18 days by H and E staining based assay; type: organism-based; details: in vivo, 432 h, time 18 day
[37] = Inhibition of bovine PP2A using [32P]-phosphohistone as substrate preincubated for 10 mins followed by substrate addition; design: species or system Bos taurus
[38] = molecular target: T1, Serine/threonine-protein phosphatase 5 (Homo sapiens, UniProt P53041); experiment: Inhibition of human PPP5C (169 to 499 residues) expressed in Escherichia coli using [32P]-phosphohistone as substrate preincubated for 10 mins followed by substrate addition
T1 sequence (P53041 whole entry): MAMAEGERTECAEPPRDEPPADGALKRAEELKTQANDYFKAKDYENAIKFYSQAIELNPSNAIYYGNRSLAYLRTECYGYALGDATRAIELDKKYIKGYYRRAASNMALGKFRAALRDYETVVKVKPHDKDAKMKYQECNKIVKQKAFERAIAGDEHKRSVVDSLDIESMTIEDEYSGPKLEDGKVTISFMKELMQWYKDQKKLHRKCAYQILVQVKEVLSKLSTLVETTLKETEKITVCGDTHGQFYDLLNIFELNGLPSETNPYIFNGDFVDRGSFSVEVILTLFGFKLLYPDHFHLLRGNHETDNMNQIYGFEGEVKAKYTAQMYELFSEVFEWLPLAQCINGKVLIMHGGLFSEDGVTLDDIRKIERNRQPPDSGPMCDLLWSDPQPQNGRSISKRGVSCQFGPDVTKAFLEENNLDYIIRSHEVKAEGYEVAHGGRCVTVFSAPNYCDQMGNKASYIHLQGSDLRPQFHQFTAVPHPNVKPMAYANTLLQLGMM

Cn1nnc2c(C(N)=O)ncn2c1=O [TEMOZOLOMIDE]
IC50 [1]: > 200 µM
Activity [2]: 54.5%
Activity [3]: 31.5%
Activity [4]: 13.5%
Activity [5]: 37.7%
Activity [6]: 69.6%
Activity [7]: 7.4%
Activity [8]: Active

O=C(O)[C@@H]1[C@H](C(=O)NC2CCCC2)[C@H]2CC[C@@H]1O2
remaining at 4 h [9]: 72.2%

O=C(NC1CCCCC1)[C@@H]1[C@H](C(=O)O)[C@H]2CC[C@@H]1O2
remaining at 4 h [9]: 73.2%

O=C(O)[C@H]1[C@@H](C(=O)N2Cc3ccccc3C2)[C@@H]2CC[C@H]1O2
remaining at 4 h [9]: 46.4%

O=C(O)[C@@H]1[C@H](C(=O)N2CC=CC2)[C@H]2CC[C@@H]1O2
remaining at 4 h [9]: 35.7%

C[C@@]12C(=O)OC(=O)[C@]1(C)[C@H]1CC[C@@H]2O1 [CANTHARIDIN]
IC50 [10]: 160 nM

O=C(O)[C@@H]1[C@H](C(=O)N2CCC2)[C@H]2CC[C@@H]1O2
remaining at 4 h [9]: 33.8%

C[C@@](O)(/C=C/[C@H]1CC=CC(=O)O1)[C@@H](C[C@@H](O)\C=C/C=C\C=C\CO)OP(=O)(O)O [FOSTRIECIN]
IC50 [10]: 1.5 nM

CC1c2ccccc2CN1C(=O)[C@@H]1[C@H](C(=O)O)[C@H]2CC[C@@H]1O2 (stereo partly drawn)
remaining at 4 h [9]: 71.8%

C/C=C1/C(=O)N[C@@H](C(=O)O)[C@H](C)C(=O)N[C@@H](CCCNC(=N)N)C(=O)N[C@@H](/C=C/C(C)=C/[C@H](C)[C@H](Cc2ccccc2)OC)[C@H](C)C(=O)N[C@@H](C(=O)O)CCC(=O)N1C [NODULARIN]
IC50 [10]: 0.3 nM

O=CN1CCN(C(=O)[C@@H]2[C@H](C(=O)O)[C@H]3CC[C@@H]2O3)CC1
remaining at 4 h [9]: 80.3%

O=C1OC(=O)C2C3CCC(O3)C12 (stereo not drawn)
IC50 [10]: 3000 nM

O=C(O)[C@@H]1[C@H](C(=O)N2CCc3ccccc32)[C@H]2CC[C@@H]1O2
remaining at 4 h [9]: 52.8%

C=C1[C@@H](O)[C@@H]2O[C@]3(CC[C@H](/C=C/[C@@H](C)[C@@H]4CC(C)=C[C@@]5(O[C@H](C[C@@](C)(O)C(=O)O)CC[C@H]5O)O4)O3)CC[C@H]2O[C@@H]1[C@@H](O)C[C@H](C)[C@H]1O[C@@]2(CCCCO2)CC[C@H]1C [OKADAIC ACID]
IC50 [10]: 0.1 nM

O=C(NC1CCCC1)[C@@H]1[C@H](C(=O)O)[C@H]2CC[C@@H]1O2
remaining at 4 h [9]: 10.2%

O=C(Nc1ccccc1)[C@@H]1[C@H](C(=O)O)[C@H]2CC[C@@H]1O2
remaining at 4 h [9]: 74.5%

CN1CCN(C(=O)[C@@H]2[C@H](C(=O)O)[C@H]3CC[C@@H]2O3)CC1
remaining at 10 min [11]: 93%
remaining at 0.5 h [12]: 79%
remaining at 1 h [13]: 68%
remaining at 2 h [14]: 50%
remaining at 4 h [9]: 45.6%
remaining at 8 h [15]: 14%
half-life [16]: 302 min
IC50 [17]: 1000 nM
Ratio IC50 [18]: 0.7
Ratio IC50 [19]: 0.1
IC50 [1]: 25.6 µM
IC50 [20]: 10.1 µM
IC50 [21]: 8.8 µM
IC50 at 48 h [22]: 26.6 µM
IC50 at 48 h [23]: 9.7 µM
IC50 at 48 h [24]: 3.5 µM
Activity [25]: 57.4%
Activity [26]: 28.4%
Activity [27]: 14.4%
Activity [5]: 52.6%
Activity [6]: 11.8%
Activity [7]: 22.9%
Activity [28]: inactive
Activity [29]: inactive
remaining at 24 h [30]: 5.3%
inhibition in vivo at 3 mg/kg [31]: 46.2%
Activity [32]: inactive
Activity [33]: Toxic
Activity [34]: Toxic
Activity [35]: Toxic
Activity [36]: Toxic
IC50 [37]: 9 nM
IC50 [38]: 3 µM

C=C1C(=O)N[C@H](C)C(=O)N[C@@H](CC(C)C)C(=O)N[C@@H](C(=O)O)[C@H](C)C(=O)N[C@@H](CCCNC(=N)N)C(=O)N[C@@H](/C=C/C(C)=C/[C@H](C)[C@H](Cc2ccccc2)OC)[C@H](C)C(=O)N[C@@H](C(=O)O)CCC(=O)N1C [MICROCYSTIN-LR] (R[Adda][d(γGlu)][NMeDha][dA]L[dAsp(3S-Me)]-OH; lactam N-7)
IC50 [10]: 0.04 nM

O=C(O)[C@@H]1[C@H](C(=O)N2CCN(c3ccccc3)CC2)[C@H]2CC[C@@H]1O2
remaining at 4 h [9]: 93%
